Key:
GPR40 = biological target: T1, GPR40 (Homo sapiens, UniProt O14842); experiment: Agonist activity on CHO-K1/GPR40 cell (Fluo-4 calcium fluorescence); assay type: cell-based; conditions: CHO-K1 cell line expressing GPR40, calcium ion fluorescence
T1 construct: host or cells: CHO-K1 (Cell bank of the Chinese Academy of Sciences, GNHa 7), retrovirus infection
From the text: Agonist activity of compounds of the present disclosure on CHO-K1/GPR40 cell.
The following method was used to determine the agonist activity of compounds of the present disclosure on GPR40. The experiment process is described as follows:
CHO-K1/GPR40 cell (CHO-K1 cell line expressing GPR40, which was constructed using retrovirus infection method, CHO-K1/GPR40 cell for short, wherein CHO-K1 cell was purchased from Cell bank of the Chinese Academy of Sciences, catalogue number GNHa 7; GPR40 cDNA was purchased from Guangzhou FulenGen Co., Ltd, catalogue number EX-UO270-MO2) was inoculated in a 96-well plate with an inoculation density of 25000 cells/well. The cell plate was incubated at 37° C. and 5% CO2 for 24 hours. The cell culture fluid was discarded during the experiment, the cells were washed with buffer solution (1×HBSS+20 mM HEPES pH 7.4) once, 100 μL of Fluo-4 calcium ion dye was quickly added into each well, incubated at 37° C. in the dark for 30 minutes, and then at room temperature for another 30 minutes. During the determination, the baseline value of each well was read at first, and then different concentrations of drug were added to the wells (50 μL/well), and the fluorescence values were then read. The fluorescence excitation wavelength was 494 nm and the emission wavelength was 516 nm. The increase of fluorescence intensity was proportional to calcium ion level in the cells. Cell response rate of each cell/(The maximum fluorescence value−The minimum fluorescence value)/The minimum fluorescence value. EC50 values of the compounds were calculated

[1] = Pharmacokinetics assay in rats after intragastric administration; assay type: in vivo; conditions: for Vd/F / AUC / CL/F / half-life / MRT / Cmax: both sexes, SD, rat, plasma, po, 5 mg/kg; for Vd/F: read-out: Apparent Distribution Volume Vz/F; for AUC: read-out: Area under Curve AUC; for CL/F: read-out: Clearance CL/F (converted); for half-life: read-out: Half-Life t½ (converted); for MRT: read-out: Mean Residence Time MRT; for Cmax: read-out: Plasma Conc. Cmax
Method: The compounds of the present invention were administered intragastrically to determine the drug concentration in plasma at different time points. The pharmacokinetic behavior of the compounds of the present invention was studied and evaluated in rats.
Compounds of Example 1, Example 2, Example 13 and Example 30
16 healthy adult SD rats were divided into 4 groups with 4 in each group, half male and half female. Rats were purchased from SINO-BRITSH SIPPR/BK LAB. ANIMAL LTD., CO, License number: SCXK (Shanghai) 2008-0016
The appropriate amount of test compounds were weighed and added to 0.5% sodium carboxymethyl cellulose to prepare a 0.5 mg/mL suspension using microwave.
After an overnight fast, the rats were administered intragastrically a dose of 5.0 mg/kg, at an administration volume of 10 mL/kg. Blood samples were taken before administration and after administration at different time points over 24.0 hours, using heparin as an anticoagulant. The separated plasma samples were stored at −20° C. The rats were fed 2 hours after administration.
Blood samples (0.1 mL) were taken before administration and at 1.0, 2.0, 3.0, 4.0, 6.0, 8.0, 11.0, 24.0 and 48.0 hours after administration, which were stored in heparinized tubes and centrifuged for 5 minutes at 3,500 rpm to separate blood plasma. The plasma samples were stored at −20° C. The rats were fed 2 hours after administration.
The content of the different test compounds in rat plasma samples after the intragastric administration was determined by LC/MS/MS method. The linearity of the method is 1.00˜2000 ng/ml. The blood sample was analyzed after protein precipitation was accomplished by the addition of methanol.

[2] = test system: ICR mice fed on a high fat diet; experiment: Oral glucose tolerance test (OGTT) in glucose load mice fed on a high fat diet; assay type: in vivo; conditions: blood glucose AUC, high fat diet ICR male mice, single oral dose 40 mg/kg
Method: ICR mice fed on a high fat diet were used as test animals. The effect of oral administration of a single dose of the compounds of the present disclosure on oral glucose tolerance test (OGTT) of glucose load mice was studied.
Compounds of Example 1, Example 2, Example 13, Example 16, Example 18, Example 19 and Example 26
Healthy ICR male mice were purchased from SINO-BRITSH SIPPR/BK LAB. ANIMAL LTD., CO, License number: SCXK (Shanghai) 2008-0016
The test compounds were added to aqueous 0.5% CMC-Na solution to prepare the corresponding concentration suspension using microwave.
After an overnight fast for 16 hours, male mice fed on a high fat diet were weighed, and the basic blood glucose was determined. The mice were randomly divided into a Blank group and the group of each test compound of the present disclosure according to the level of blood glucose.
The dosage of administration was 20 mg/kg or 40 mg/kg, and the Blank group was administered aqueous 0.5 CMC-Na solution.
20% Glucose solution was administered 15 minutes after intragastrical administration (each mouse was administered 0.4 mL)
The compounds were administered according to the aforesaid dosage to determine the blood glucose value (−15 minutes).
At 15 minutes after administration, 20% glucose solution was administrated at a dose of 2 g/kg and the blood glucose values at 0, 15, 30, 45, 60 and 120 minutes in each mouse were determined by Roche Accu-Chek blood glucose monitoring meter.
Using Excel statistical software: the average value was calculated with avg; SD value was calculated with STDEV; and P value of difference among groups was calculated with TTEST. • AUC calculation formula: AUC=(t15min+t0min)×0.25/2+(t30min+t15min)×0.25/2+(t45min+t30min)×0.25/2+(t60min+t45min)×0.25/2+(t120min+t60min)×1/2 • Wherein t0min, t15min, t30min, t45min, t60min, t120min were blood glucose values determined at different time points.

T1 sequence (O14842 whole entry): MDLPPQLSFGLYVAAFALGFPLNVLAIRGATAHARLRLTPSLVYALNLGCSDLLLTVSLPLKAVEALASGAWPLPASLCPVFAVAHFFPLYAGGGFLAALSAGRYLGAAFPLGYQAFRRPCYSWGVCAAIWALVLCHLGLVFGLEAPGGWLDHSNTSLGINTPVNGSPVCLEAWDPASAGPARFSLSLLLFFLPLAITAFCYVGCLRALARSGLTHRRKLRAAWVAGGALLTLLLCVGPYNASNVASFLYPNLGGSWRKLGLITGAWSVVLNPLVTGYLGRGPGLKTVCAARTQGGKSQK

Row | Structure (SMILES) | EC50 (GPR40) | Area under Curve AUC ([1]; SD rats, 5 mg/Kg) | Clearance CL/F ([1]; SD rats, 5 mg/Kg) | Half-Life t½ ([1]; SD rats, 5 mg/Kg) | Mean Residence Time MRT ([1]; SD rats, 5 mg/Kg) | Plasma Conc. Cmax ([1]; SD rats, 5 mg/Kg) | AUC decrease rate % ([2]; 40 mg/kg) | Vd/F [1] | AUC [1] | CL/F [1] | half-life [1] | MRT [1] | Cmax [1] | AUC decrease rate % [2]
1 | Cc1cc(O[C@@H]2COC[C@H]2O)cc(C)c1-c1cccc(COc2ccc3c(c2)OC[C@H]3CC(=O)O)c1 (mixture of isomers) [Example 13, 2-((S)-6-((4′-(((3R,4R)/(3S,4S)-4-Hydroxytetrahydrofuran-3-yl)oxy)-2′,6′-dimethylbiphenyl-3-yl)methoxy)-2,3-dihydrobenzofuran-3-yl)acetic acid] | 16 nM | 39357 ± 10659 ng·h/mL | 2.17 ± 0.5 mL/min/kg | 10.0 ± 0.3 h | 12.5 ± 1.5 h | 3153 ± 482 ng/mL | 39.71% |  |  |  |  |  |  | 
2 | Cc1cc(O[C@H]2CCOC2)cc(C)c1-c1cccc(COc2ccc3c(c2)OC[C@H]3CC(=O)O)c1 [Example 1, 2-((S)-6-((2′,6′-Dimethyl-4′-(((S)-tetrahydrofuran-3-yl)oxy)biphenyl-3-yl)methoxy)-2,3-dihydrobenzofuran-3-yl)acetic acid] | 31 nM |  |  |  |  |  |  | 3.39 ± 1.24 L/kg | 21600 ± 8620 ng·h/mL | 4 mL/min/kg | 10.1 ± 3.3 h | 14.5 ± 4.7 h | 1690 ± 698 ng/mL | 36.08%
3 | Cc1cc(O[C@@H]2CCOC2)cc(C)c1-c1cccc(COc2ccc3c(c2)OC[C@H]3CC(=O)O)c1 [Example 2, 2-((S)-6-((2′,6′-Dimethyl-4′-(((R)-tetrahydrofuran-3-yl)oxy)biphenyl-3-yl)methoxy)-2,3-dihydrobenzofuran-3-yl)acetic acid] | 35 nM |  |  |  |  |  |  | 2.79 ± 0.79 L/kg | 32900 ± 11900 ng·h/mL | 2.5 mL/min/kg | 13.4 ± 3.8 h | 18.9 ± 6 h | 2010 ± 511 ng/mL | 29.49%
4 | Cc1cc(O[C@@H]2COC[C@H]2O)cc(C)c1-c1cccc(COc2ccc3c(c2)OC[C@H]3CC(=O)O)c1 [Example 30, 2-((S)-6-((4′-(((3R,4R)-4-hydroxytetrahydrofuran-3-yl)oxy)-2′,6′-dimethylbiphenyl-3-yl)methoxy)-2,3-dihydrobenzofuran-3-yl)acetic acid] | 34 nM |  |  |  |  |  | 29.59% | 1.88 ± 0.66 L/kg | 38200 ± 15000 ng·h/mL | 2.33 mL/min/kg | 9.35 ± 0.55 h | 13.3 ± 2 h | 2730 ± 478 ng/mL | 
